Test system: monocrotaline-treated rats with pulmonary hypertension
Conditions: MCT-induced pulmonary arterial hypertension, 10 mg/kg by gavage once daily from day 14 to day 28 after MCT
Description: The effects of the compounds and drug combinations according to the invention are tested in vitro on isolated rat pulmonary arteries and in vivo in monocrotaline-treated rats with pulmonary hypertension.
Male Sprague Dawley rats (250-300 g) are treated with monocrotaline 60 mg/kg subcutaneously (=day 0). On day 14 after monocrotaline injection treatment the compound/combination to be tested is administered. On day 28 hemodynamic parameters, i.e. right ventricular pressure, systemic blood pressure, heart rate, arterial and venous oxygen saturation are measured and compared with untreated control animals.

## CNC(=O)c1cc(Oc2ccc(NC(=O)Nc3ccc(Cl)c(C(F)(F)F)c3)cc2)ccn1.Cc1ccc(S(=O)(=O)O)cc1 [p-toluenesulfonic acid salt of 4{4-[3-(4-chloro-3-trifluoromethylphenyl)-ureido]-phenoxy}-pyridine-2-carboxylic acid methyl amide]
Day 28
  right ventricle/left ventricle+septum ratio (right ventricular hypertrophy): 0.26±0.01
Measured on day 28, mean±SEM
  right ventricular systolic pressure: 36.50±1.50 mmHg
